Laboratory results: article PMC6832705, “Menthol Increases Bendiocarb Efficacy Through Activation of Octopamine Receptors and Protein Kinase A” (Molecules, 2019)

Target: T1, acetylcholinesterase (AChE)
T1 construct: gene ace1; native enzyme in collagenase-treated, dissociated terminal abdominal ganglia of males; not purified
Assay: modified Ellman assay, absorbance […] nm
Format: biochemical, Periplaneta americana
Conditions: acetylthiocholine (0.1 mM stock), 15 min pre-incubation with bendiocarb, pH 7.2, 30 °C, no menthol; covalent; read-out: ED50 (the source's name)

CNC(=O)Oc1cccc2c1OC(C)(C)O2 [bendiocarb]
IC50: 100 nM
